Laboratory results: ChEMBL document CHEMBL1141887, “Design and synthesis of (E)-1,1,2-triarylethenes: novel inhibitors of the cyclooxygenase-2 (COX-2) isozyme” (Bioorg Med Chem Lett, 2005)

Target: T1, Prostaglandin G/H synthase 1 (Ovis aries, UniProt P05979)
T1 sequence (P05979 whole entry): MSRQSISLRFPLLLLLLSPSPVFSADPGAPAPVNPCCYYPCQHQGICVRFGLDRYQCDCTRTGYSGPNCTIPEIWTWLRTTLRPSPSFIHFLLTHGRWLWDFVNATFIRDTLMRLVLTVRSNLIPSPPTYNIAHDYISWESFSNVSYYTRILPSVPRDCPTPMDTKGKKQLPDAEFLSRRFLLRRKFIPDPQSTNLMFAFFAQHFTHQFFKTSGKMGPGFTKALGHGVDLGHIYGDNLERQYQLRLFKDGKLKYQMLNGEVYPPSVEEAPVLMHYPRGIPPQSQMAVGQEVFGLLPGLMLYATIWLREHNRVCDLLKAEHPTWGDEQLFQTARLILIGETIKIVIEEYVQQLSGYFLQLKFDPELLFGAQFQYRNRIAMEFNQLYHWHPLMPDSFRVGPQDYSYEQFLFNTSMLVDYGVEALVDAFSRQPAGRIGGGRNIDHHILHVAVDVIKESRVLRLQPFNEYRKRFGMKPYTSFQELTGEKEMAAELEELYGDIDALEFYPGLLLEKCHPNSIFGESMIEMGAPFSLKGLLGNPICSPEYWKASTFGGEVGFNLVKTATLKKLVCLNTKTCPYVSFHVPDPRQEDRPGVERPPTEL
Test: In vitro inhibitory concentration against ovine Cyclooxygenase-1

| Compound | IC50 |
| --- | --- |
| Cc1ccc(/C=C(\c2ccccc2)c2ccc(S(C)(=O)=O)cc2)cc1 | > 100 µM |
| CS(=O)(=O)c1ccc(C=C(c2ccc(Cl)cc2)c2ccc(Cl)cc2)cc1 | > 100 µM |
| CS(=O)(=O)c1ccc(/C(=C/c2ccc(Cl)cc2)c2ccccc2)cc1 | > 100 µM |
| CS(=O)(=O)c1ccc(C=C(c2ccc(F)cc2)c2ccc(F)cc2)cc1 | > 100 µM |
| CS(=O)(=O)c1ccc(/C(=C/c2ccc(F)c(F)c2)c2ccccc2)cc1 | > 100 µM |
| Cc1ccc(C(=Cc2ccc(S(C)(=O)=O)cc2)c2ccc(C)cc2)cc1 | > 100 µM |
| CS(=O)(=O)c1ccc(/C(=C/c2ccc(F)cc2)c2ccccc2)cc1 | > 100 µM |
| CS(=O)(=O)c1ccc(/C(=C/c2ccccc2)c2ccccc2)cc1 | 0.14 µM |
